28 compounds from BindingDB's records for doi:10.7270/Q2SJ1J08 (University of Pittsburgh, 2007) can be followed below.

In general, IC50 refers to the concentration needed to halve the response being measured. Low readings indicate inhibition by little substance, high ones a need for much substance.

The test deals with T1, M-phase inducer phosphatase 2 (Homo sapiens, UniProt P30305).
T1 sequence (P30305 whole entry): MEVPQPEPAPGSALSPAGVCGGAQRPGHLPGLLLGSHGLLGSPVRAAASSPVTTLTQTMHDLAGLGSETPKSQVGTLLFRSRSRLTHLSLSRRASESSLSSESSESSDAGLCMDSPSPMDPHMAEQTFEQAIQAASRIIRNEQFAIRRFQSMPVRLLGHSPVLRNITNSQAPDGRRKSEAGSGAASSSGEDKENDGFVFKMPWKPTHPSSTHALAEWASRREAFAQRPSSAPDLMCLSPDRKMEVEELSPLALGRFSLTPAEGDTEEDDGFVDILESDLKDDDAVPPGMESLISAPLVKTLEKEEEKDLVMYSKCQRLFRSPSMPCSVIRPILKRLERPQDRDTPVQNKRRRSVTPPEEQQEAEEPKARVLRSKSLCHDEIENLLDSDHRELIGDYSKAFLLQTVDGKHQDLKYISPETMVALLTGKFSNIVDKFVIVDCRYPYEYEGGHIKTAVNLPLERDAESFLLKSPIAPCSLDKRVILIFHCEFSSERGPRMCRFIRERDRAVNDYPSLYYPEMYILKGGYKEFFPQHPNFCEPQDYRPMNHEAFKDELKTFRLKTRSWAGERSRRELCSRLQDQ
Put plainly: Cdc25B phosphatase inhibition with DTT and catalase – biochemical, 25 mM DTT, probe assessment, dose response (AID 669).
Take `O=C(Nc1ccc2nc(-c3ccco3)c(-c3ccco3)nc2c1)N1CCCCCC1`: 40.9 µM corresponded to half-maximal inhibition (IC50).

Regarding `Cc1ccc2c(c1C)NC(C(=O)O)C1CC=CC21` (stereo not drawn), the IC50 turned out to be 20.5 µM.

As for `O=C(O)C1Nc2c(O)cccc2C2C=CCC12` (stereo not drawn), inhibition was half-maximal at 16 µM (IC50).

For `Cn1ncnc2c(=O)n(C)c(=O)nc1-2`, the IC50 was over 50 µM.

The compound `[O-]/[N+](=C\c1ccncc1)c1ccccc1` came in with an IC50 of over 50 µM.

On to `COc1cccc2c(C)c(C(=O)O)[nH]c12`, for which inhibition was half-maximal at 11.4 µM (IC50).

`O=C1C=Cc2ccccc2C1=O` [1,2-dihydronaphthalene-1,2-dione] gave an IC50 of over 50 µM.

`CCn1nc(-c2ccccc2)nc2c(=O)n(C)c(=O)nc1-2` [1-Ethyl-6-methyl-3-phenyl-1H-pyrimido[5,4-e][1,2,4]triazine-5,7-dione] returned an IC50 of over 50 µM.

The compound `[O-]/[N+](=C\c1ccc(OC(F)F)cc1)c1ccccc1` [1-[4-(difluoromethoxy)phenyl]-N-phenylmethanimine oxide] had an IC50 of over 50 µM.

Regarding `CCn1nc(-c2cccs2)nc2c(=O)n(C)c(=O)nc1-2` [1-ethyl-6-methyl-3-thiophen-2-yl-pyrimido[5,4-e][1,2,4]triazine-5,7-dione], the IC50 was over 50 µM.

For `O=C1Cc2ccccc2C(=O)N1CCc1ccccc1` [2-(2-phenylethyl)-4H-isoquinoline-1,3-dione], the IC50 was over 50 µM.

As to `N#Cc1c(N)sc(=S)c2c1CCN(Cc1ccccc1)C2` [3-Amino-7-benzyl-1-thioxo-5,6,7,8-tetrahydro-1H-thiopyrano[3,4-c]pyridine-4-carbonitrile], the IC50 is over 50 µM.

The compound `Cc1ccccc1Nc1cc2ccccc2c(O)n1` [3-[(2-methylphenyl)amino]-2H-isoquinolin-1-one] showed an IC50 of over 50 µM.

`COc1ccc(Br)cc1C=c1sc2nc(-c3ccco3)nn2c1=O` [5-[(5-bromanyl-2-methoxy-phenyl)methylidene]-2-(furan-2-yl)-[1,3]thiazolo[3,2-b][1,2,4]triazol-6-one] registered an IC50 of 16.8 µM.

`CC(=O)Nc1cc(OC(C)=O)c2nonc2c1OC(C)=O` [Acetic acid 7-acetoxy-5-acetylamino-benzo[1,2,5]oxadiazol-4-yl ester] registered an IC50 of over 50 µM.

For `CCOC(=O)C(C(=O)OCC)c1cc(Br)c2noc3c2c1C(=O)c1ccccc1-3` [MLS000038842], the IC50 is over 50 µM.

Consider `Oc1nc(Nc2ccccc2)cc2ccccc12` [MLS000043701], for which the IC50 is over 50 µM.

For `O=C1C=Cc2ccccc2/C1=C/NC12CN3CCN(CN(C3)C1)C2` [MLS000071484], the IC50 is over 50 µM.

Regarding `Cc1c(N=c2c(=O)c3ccccc3c2=O)c(=O)n(-c2ccccc2)n1C` [MLS000105950], the IC50 was over 50 µM.

Take `CCOc1ccc2noc3c2c1C(=O)c1ccccc1-3` [MLS000106837]: the IC50 is over 50 µM.

As to `COc1ccc2noc3c2c1C(=O)c1ccccc1-3` [MLS000106874], the IC50 is over 50 µM.

As for `c1ccc(CSc2nnc(-c3ccco3)c(-c3ccco3)n2)cc1` [MLS-0029114.0001], the IC50 was over 50 µM.

Compound `Cc1ccc2c(c1)C1C=CCC1C(C(=O)O)N2` (stereo not drawn) [MLS-0067149.0001] yielded an IC50 of 12.1 µM.

Take `O=C(NC1(O)C(=O)c2ccccc2C1=O)c1ccccc1` [N-(2-hydroxy-1,3-dioxo-2-indenyl)benzamide]: the IC50 was over 50 µM.

`COc1cccc2c1NC(C(=O)O)C1CC=CC21` (stereo not drawn) [SMR000009698] registered an IC50 of 13.2 µM.

As for `O=C(OC1CCCCC1)c1ccc2c(c1)C1C=CCC1C(C(=O)O)N2` (stereo not drawn) [SMR000019385], 8.69 µM corresponded to half-maximal inhibition (IC50).

`N#Cc1c(N2CCCC2)nc(N)c2c(N)nc(N3CCCC3)cc12` [SMR000061605] yielded an IC50 of over 50 µM.

As to `Nc1cccc2cnccc12` [isoquinolin-5-amine], the IC50 was over 50 µM.
